Key:
rat [1] = conditions: Combined chronic toxicity/carcinogenicity, wistar, Oral, Feed, dose end: 2 year, group: systemic
rat [2] = conditions: Subchronic oral toxicity in rodents, wistar, Feed, dose end: 90 day, group: systemic
mouse [3] = conditions: Carcinogenicity, other, Oral, Feed, dose end: 18 month, group: systemic
rat [4] = conditions: Combined chronic toxicity/carcinogenicity; wistar; Oral; Diet; dose end: 104 week; group: systemic; systemic / in life observation / body weight / body weight + systemic / in life observation / food consumption / food consumption + systemic…
rat [5] = conditions: Prenatal developmental toxicity study, wistar, Oral, Gavage/Intubation, dose end: 15 GD
mouse [6] = conditions: Subchronic oral toxicity in rodents, other, Feed, dose end: 90 day, group: systemic
dog = conditions: Chronic toxicity, beagle, Oral, Feed, dose end: 52 week, group: systemic
rabbit = conditions: Prenatal developmental toxicity study, new zealand white, Oral, Gavage/Intubation, dose end: 28 GD
rat [7] = conditions: Multigenerational reproductive toxicity study, Wistar, Oral, Feed, dose end: 2 generation
[8] = systemic / in life observation / body weight / body weight + systemic / in life observation / body weight / body weight gain + systemic / …
[9] = systemic / clinical chemistry / alkaline phosphatase (alp/alk) / alkaline phosphatase (alp/alk) + systemic / clinical chemistry / urea …
[10] = systemic / pathology microscopic / epididymis / dilatation + systemic / pathology microscopic / epididymis / infiltration cellular + …
[11] = group: developmental, systemic / in life observation / body weight / fetal weight
[12] = group: maternal, systemic / in life observation / body weight / body weight + systemic / in life observation / body weight / body weight gain
[13] = systemic / clinical chemistry / cholesterol / cholesterol + systemic / pathology microscopic / liver / hypertrophy + systemic / clinical …
[14] = systemic / hematology / erythrocyte (rbc) count differential / erythrocyte (rbc) + systemic / hematology / hematocrit (hct) / hematocrit (…
[15] = group: developmental, developmental / developmental malformation / bone / hole(s) + developmental / developmental malformation / bone / incomplete ossification + …
[16] = group: maternal, reproductive / reproductive performance / aborted / aborted + systemic / in life observation / body weight / body weight gain + systemic / …
[17] = group: offspring, systemic / in life observation / body weight / offspring (pup) weight gain
[18] = group: parental, systemic / in life observation / body weight / body weight gain

## O=C(Nc1ccccc1)Nc1cnns1 [Thidiazuron]
Rat [1]; [8]
  LOAEL: 36.4 mg/kg/day
  NOAEL: 8 mg/kg/day
Rat [1]; systemic / pathology microscopic / kidney / mineralization + systemic / pathology microscopic / kidney / dilatation + systemic / pathology …
  NEL: 105 mg/kg/day
Rat [2]; [9]
  LOAEL: 102 mg/kg/day
  NEL: 11.2 mg/kg/day
  NOAEL: 34.5 mg/kg/day
Rat [2]; systemic / clinical chemistry / phosphorus / phosphorus
  LEL: 34.5 mg/kg/day
Mouse [3]; systemic / pathology microscopic / epididymis / dilatation + systemic / pathology microscopic / epididymis / infiltration cellular
  LOAEL: 86.7 mg/kg/day
Mouse [3]; [10]
  LEL: 86.7 mg/kg/day
  NEL: 26.5 mg/kg/day
  NOAEL: 26.5 mg/kg/day
Rat [4]
  LEL: 31.7 mg/kg/day
  LOAEL: > 31.7 mg/kg/day
  NEL: 10.6 mg/kg/day
  NOAEL: ≥ 31.7 mg/kg/day
Rat [5]; [11]
  LEL: 300 mg/kg/day
  LOAEL: 300 mg/kg/day
  NEL: 100 mg/kg/day
  NOAEL: 100 mg/kg/day
Rat [5]; [12]
  LEL: 300 mg/kg/day
  LOAEL: 300 mg/kg/day
  NEL: 100 mg/kg/day
  NOAEL: 100 mg/kg/day
Mouse [6]; systemic / clinical chemistry / cholesterol / cholesterol + systemic / pathology microscopic / liver / hypertrophy
  LOAEL: 171 mg/kg/day
Mouse [6]; [13]
  NEL: 85.2 mg/kg/day
  NOAEL: 85.2 mg/kg/day
Mouse [6]; systemic / clinical chemistry / cholesterol / cholesterol + systemic / pathology microscopic / liver / hypertrophy + systemic / organ weight…
  LEL: 171 mg/kg/day
dog; [14]
  LOAEL: 11.8 mg/kg/day
  NOAEL: 3.93 mg/kg/day
dog; systemic / organ weight / spleen / absolute + systemic / organ weight / spleen / relative to body weight
  LEL: 11.1 mg/kg/day
dog; systemic / organ weight / spleen / absolute + systemic / organ weight / spleen / relative to body weight + systemic / hematology / …
  NEL: 4.01 mg/kg/day
rabbit; [15]
  LEL: 125 mg/kg/day
  LOAEL: 125 mg/kg/day
  NEL: 25 mg/kg/day
  NOAEL: 25 mg/kg/day
rabbit; [16]
  LEL: 125 mg/kg/day
  LOAEL: 125 mg/kg/day
  NEL: 25 mg/kg/day
  NOAEL: 25 mg/kg/day
Rat [7]; [17]
  LEL: 108 mg/kg/day
  LOAEL: 108 mg/kg/day
  NEL: 35.4 mg/kg/day
  NOAEL: 35.4 mg/kg/day
Rat [7]; [18]
  LEL: 108 mg/kg/day
  LOAEL: 108 mg/kg/day
  NEL: 35.4 mg/kg/day
  NOAEL: 35.4 mg/kg/day

Source: EPA's ToxRefDB 2
